Measurements taken from patent publication US20230187019A1, “METHOD FOR DETERMINING A DRUG COMBINATION VIA A BLOCKING MODEL OF A MULTI-SITE-TARGETED PROTEIN AND APPLICATIONS THEREOF” (National Tsing Hua University, priority 2021, published 2023).
Entries after “also recorded” stand apart in the source; their conditions may differ.

Tests used:
AsPC-1 = test: Cell viability assay (MTT) on AsPC-1; details: for inhibition of cell viability, significance: 20 μM, AsPC-1, p-value <0.05; for AsPC-1 Cell Viability: remaining viability, 20 μM drug, normalized by blank control, three repeats; for viability at 20 µM: Homo sapiens, ASPC1, read-out: AsPC-1 Cell Viability, remaining viability, 20 μM drug, normalized by blank control, three repeats
Procedure: The cell viability was measured using the MTT assay or CellTiter-Glo Luminescent Cell Viability Assay. For MTT assay, mouse AK4.4 (1,000 cells/well) and human AsPC-1 (1,500 cells/well) cells were seeded in 96-well plates and cultured in serum-free medium (SFM) containing indicated concentrations of drugs for 48 hours. To measure the cell viability, 15 μL MTT (3-(4,5-dimethylthiazol-2-yl)-2,5-diphenyltetrazolium bromide, 5 mg/mL in PBS) was added in each well and kept at 37° C. for three hours. The precipitated crystals were then dissolved in 50 μL DMSO, and the absorbance at 570 nm was measured by Multiskan GO Microplate Spectrophotometer (Thermo Scientific, USA) to estimate the cell survival rate. To quantify the drug combination effect, the combination index was calculated when the cell viability was reduced by 50% using the following Equation (1):

shCtrl/HCT116 = test: Cell viability assay on shCtrl/HCT116 (control strain); assay type: cell-based, human; details: 20 μM drug, C strain; for shCtrl/HCT116 Cell Viability: remaining viability; for viability at 20 µM: Homo sapiens, HCT-116, remaining viability, read-out: shCtrl/HCT116 Cell Viability
shATG4B/HCT116 = test: Cell viability assay on shATG4B/HCT116 (ATG4B silencing strain); assay type: cell-based, human; details: for difference of cell viability inhibition between shATG4B/HCT116 (S strain) and shCtrl/HCT116 (C strain): Student's t-test, p-value <0.05; for shATG4B/HCT116 Cell Viability: remaining viability; for shATG4B/HCT116 Cell Viability / viability at 20 µM: 20 μM drug, S strain; for viability at 20 µM: Homo sapiens, HCT-116, remaining viability, read-out: shATG4B/HCT116 Cell Viability
HCT116 = test: Cell viability assay on HCT116; assay type: cell-based, human; details: 20 μM drug, normalized by blank control, three repeats; for HCT116 Cell Viability: remaining viability; for viability at 20 µM: Homo sapiens, HCT-116, remaining viability, read-out: HCT116 Cell Viability

Structure (SMILES) | inhibition of cell viability, significance (AsPC-1) | AsPC-1 Cell Viability (AsPC-1) [%] | AsPC-1 Cell Viability (AsPC-1; listed as aclacinomycin A) [%] | shCtrl/HCT116 Cell Viability (shCtrl/HCT116) [%] | shCtrl/HCT116 Cell Viability (shCtrl/HCT116; listed as aclacinomycin A) [%] | difference of cell viability inhibition between shATG4B/HCT116 (S strain) and shCtrl/HCT116 (C strain) (shATG4B/HCT116) | shATG4B/HCT116 Cell Viability (shATG4B/HCT116) [%] | shATG4B/HCT116 Cell Viability (shATG4B/HCT116; listed as aclacinomycin A) [%] | HCT116 Cell Viability (HCT116) [%] | HCT116 Cell Viability (HCT116; listed as aclacinomycin A) [%] | viability at 20 µM (AsPC-1) [%] | viability at 20 µM (shCtrl/HCT116) [%] | viability at 20 µM (shATG4B/HCT116) [%] | viability at 20 µM (HCT116) [%]
CC[C@@]1(O)C[C@H](O[C@H]2C[C@H](N(C)C)[C@H](O[C@H]3C[C@H](O)[C@H](O[C@H]4CCC(=O)[C@H](C)O4)[C@H](C)O3)[C@H](C)O2)c2c(cc3c(c2O)C(=O)c2c(O)cccc2C3=O)[C@H]1C(=O)OC [Aclacinomycin A] | statistically significant | 48.3 ± 4.6 | 48 | 27.7 ± 1.2 | 28 | statistically significant; also recorded: significant differences | 38.4 ± 1.3 | 38 | 27.9 ± 1.3 | 28 | – | – | – | –
O=C(c1c2ccccc2cc2ccccc12)N1CCC(N2CCC[C@@H](C(=O)N3CCOCC3)C2)CC1 [CP-640186] | – | 87.4 ± 4.7 | – | – | – | – | – | – | 84.3 ± 2.0 | – | – | – | – | –
Cc1nc2c([nH]1)-c1ccccc1N(C(=O)c1ccc(NC(=O)c3ccccc3-c3ccccc3)cc1)CC2 [Conivaptan] | – | – | – | – | – | – | – | – | – | – | 99.3 ± 2.8 | 69.5 ± 2.2 | 84 ± 2 | 67.8 ± 0.5
COC(=O)N[C@H](C(=O)N1CCC[C@H]1c1nc(-c2ccc(-c3ccc(-c4c[nH]c([C@@H]5CCCN5C(=O)[C@@H](NC(=O)OC)C(C)C)n4)cc3)cc2)c[nH]1)C(C)C [Daclatasvir] | – | – | – | – | – | – | – | – | – | – | 71.1 ± 4.2 | 58.8 ± 2.6 | 69.4 ± 3.7 | 62.7 ± 0.3
CC(C)[C@@]1(NC(=O)[C@@H]2C[C@@H]3c4cccc5[nH]cc(c45)C[C@H]3N(C)C2)O[C@@]2(O)[C@@H]3CCCN3C(=O)[C@H](Cc3ccccc3)N2C1=O [Dihydroergocristine] | statistically significant | – | – | – | – | – | – | – | – | – | 77.1 ± 1.6 | – | – | 64 ± 3.7
C[C@@H]1CCO[C@H]2Cn3cc(C(=O)NCc4ccc(F)cc4F)c(=O)c(O)c3C(=O)N12 [Dolutegravir] | – | – | – | – | – | statistically significant; also recorded: significant differences | – | – | – | – | 106 ± 5.3 | 85.5 ± 2.9 | 89.4 ± 2.5 | 88 ± 4
C#C[C@]1(O)CC[C@H]2[C@@H]3CCc4cc(O)ccc4[C@H]3CC[C@@]21C [Ethynyl Estradiol] | statistically significant | – | – | 48.7 ± 1.4 | – | statistically significant; also recorded: significant differences | 69.5 ± 3.3 | – | 47.4 ± 1.8 | – | 80.1 ± 6.4 | 49 | 70 | 47
Cc1cc(-c2ccc(/N=N/c3ccc4c(S(=O)(=O)O)cc(S(=O)(=O)O)c(N)c4c3O)c(C)c2)ccc1/N=N/c1ccc2c(S(=O)(=O)O)cc(S(=O)(=O)O)c(N)c2c1O [Evans Blue] | statistically significant | 33.6 ± 1.2 | – | 34.9 ± 0.3 | – | – | 34.5 ± 1.7 | – | 34.8 ± 1.3 | – | 34 | 35 | 34 | 35
COc1ccc2c(c1)C(=O)N(CCc1ccc(S(=O)(=O)NC(=O)NC3CCCCC3)cc1)C(=O)C2(C)C [Gliquidone] | – | – | – | – | – | – | – | – | – | – | 92.4 ± 5.3 | 88.4 ± 7.3 | 89.6 ± 0.6 | 87 ± 1.6
Cc1ccccc1-c1cc(N2CCN(C)CC2)ncc1N(C)C(=O)C(C)(C)c1cc(C(F)(F)F)cc(C(F)(F)F)c1 [Netupitant] | statistically significant | 42.9 ± 5.1 | – | – | – | – | – | – | 2.8 ± 0.4 | – | 43 | – | – | 3
